Data published in patent EP4631959A2, “NOVEL MINIGASTRIN-DERIVED CHOLECYSTOKININ 2 RECEPTOR BINDING MOLECULES FOR IMAGING AND TARGETED RADIOTHERAPY” (priority 2022, dated 2024).
Read-outs that look alike come from different tables or passages of the source. Starred links: 1 amine or outer side, 2 acyl side, 3 side chain; linkers in the order of their positions; H or OH if unused. Non-standard residues stand in square brackets, D forms with d. Residues, ends and D or L forms follow the SMILES beside them. *: point of attachment. X5 = O=C(O)CN1CCN(CC(=O)O)CCN([C@@H](CCC(=O)*)C(=O)O)CCN(CC(=O)O)CC1; X2 = O=C(O)CN1CCN(CC(=O)O)CCN([C@H](CCC(=O)*)C(=O)O)CCN(CC(=O)O)CC1; Benzoyl(4-SiFtBu2) = CC(C)(C)[Si](F)(c1ccc(C(=O)*)cc1)C(C)(C)C; DOTA = O=C(O)CN1CCN(CC(=O)O)CCN(CC(=O)*)CCN(CC(=O)O)CC1; NODAGA = O=C(O)CN1CCN(CC(=O)O)CCN(C(CCC(=O)*)C(=O)O)CC1; NOTA = O=C(O)CN1CCN(CC(=O)O)CCN(CC(=O)*)CC1; d(γGlu) = O=C(O)[C@@H](CCC(=O)[*:2])N[*:1]; Bip = N[C@@H](Cc1ccc(-c2ccccc2)cc1)C(=O)O; 1Nal = N[C@@H](Cc1cccc2ccccc12)C(=O)O; 2Nal = N[C@@H](Cc1ccc2ccccc2c1)C(=O)O; PEG5 = NCCOCCOCCOCCOCCOCCC(=O)O; NMeNle = CCCC[C@H](NC)C(=O)O; PEG4 = NCCOCCOCCOCCOCCC(=O)O; Nle = CCCC[C@H](N)C(=O)O; Dap = NC[C@H](N)C(=O)O

Molecular target: T1, CCK-2R (Rattus norvegicus, UniProt P30553)
T1 construct: The CCK-2R expressing rat pancreatic tumor cells AR4-2J; host or cells: AR4-2J rat pancreatic tumor cells
T1 sequence (P30553 1-452): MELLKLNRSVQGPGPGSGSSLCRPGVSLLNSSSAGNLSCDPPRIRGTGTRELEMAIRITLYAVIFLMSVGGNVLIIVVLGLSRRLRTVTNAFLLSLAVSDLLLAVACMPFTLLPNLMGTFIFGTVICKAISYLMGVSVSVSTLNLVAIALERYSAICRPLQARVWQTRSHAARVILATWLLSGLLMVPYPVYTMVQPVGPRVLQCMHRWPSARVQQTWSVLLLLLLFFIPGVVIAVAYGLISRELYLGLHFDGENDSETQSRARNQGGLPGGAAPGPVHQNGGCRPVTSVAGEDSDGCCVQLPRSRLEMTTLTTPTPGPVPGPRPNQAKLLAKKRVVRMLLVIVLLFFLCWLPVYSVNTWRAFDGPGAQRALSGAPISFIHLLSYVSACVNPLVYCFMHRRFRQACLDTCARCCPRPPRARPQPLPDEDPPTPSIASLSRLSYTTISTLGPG
Experiment: Determination of IC50: CCK-2R affinity on AR4-2J cells, competition with [^177Lu]Lu-DOTA-PP-F11N
Type: binding
Experimental: AR4-2J cells were harvested 24 ± 2 h before the experiment and seeded in 24-well plates (2.0 × 10^5 cells in 1 mL/well). After removal of the nutrient medium (RPMI 1640, 5 mM L-Gln, 5 mL non-essential amino acids (100×), 10% FCS), the cells were washed once with 500 µL PBS. Thereafter, 200 µL nutrient medium (5% BSA, v/v) were added. Next, 25 µL per well of solutions containing either nutrient medium (5% BSA, v/v) as control or the respective compound in increasing concentration (10^-10 - 10^-4 M), were added with subsequent addition of 25 µL [^177Lu]Lu-DOTA-PP-F11N (0.3 pmol/well).
All experiments were performed in triplicate for each concentration. After 3 h incubation at 37 °C, the experiment was terminated by removal of the medium and consecutive rinsing with 300 µL PBS. The media of both steps were combined in one fraction and represent the amount of free radiolabeled reference. Afterwards, the cells were lysed with 300 µL of 1 M NaOH for at least 15 min and united with the 300 µL NaOH of the following washing step. Quantification of bound and free radiolabeled reference was accomplished in a γ-counter. IC50 determination for each conjugate was repeated twice.

[1] = AR4-2J cells, references ^natLu-labeled, other peptides without chelator, read-out: IC50 [nM] (n = 3)
[2] = AR4-2J cells, ^natGa-labeled, read-out: IC50 [nM] (n = 3), ^natGa-labeled
[3] = AR4-2J cells, ^natLu-labeled, read-out: IC50 [nM] (n = 3), ^natLu-labeled

CCCC[C@@H](C(=O)N[C@@H](CC(=O)O)C(=O)N[C@@H](Cc1ccc(O)cc1)C(N)=O)N(C)C(=O)[C@@H](N)Cc1c[nH]c2ccccc12 [H-Trp-(N-Me)Nle-Asp-Tyr-NH2] (H-W[NMeNle]DY-NH2)
IC50 [1]: 5.7 ± 0.5 nM

CCCC[C@H](NC(=O)[C@H](Cc1c[nH]c2ccccc12)NC(=O)CNC(=O)[C@H](Cc1ccc(O)cc1)NC(=O)[C@H](C)NC(=O)[C@@H](CCC(=O)O)NC(=O)[C@@H](CCC(=O)O)NC(=O)[C@@H](CCC(=O)O)NC(=O)[C@@H](CCC(=O)O)NC(=O)[C@@H](CCC(=O)O)NC(=O)[C@@H](CCC(=O)O)NC(=O)CN1CCN(CC(=O)O)CCN(CC(=O)O)CCN(CC(=O)O)CC1)C(=O)N[C@@H](CC(=O)O)C(=O)N[C@@H](Cc1ccccc1)C(N)=O [DOTA-PP-F11N, DOTA-glu^1-glu^2-glu^3-glu^4-glu^5-glu^6-Ala^7-Tyr^8-Gly^9-Trp^10-Nle^11-Asp^12-Phe^13-NH2, reference compound]
IC50: 12.8 ± 2.8 nM

CCCC[C@@H](C(=O)N[C@@H](CC(=O)O)C(=O)N[C@@H](Cc1ccccc1)C(N)=O)N(C)C(=O)[C@@H](N)Cc1c[nH]c2ccccc12 [H-Trp-(N-Me)Nle-Asp-Phe-NH2] (H-W[NMeNle]DF-NH2)
IC50 [1]: 4.5 ± 0.6 nM

CCCC[C@@H](C(=O)N[C@@H](CC(=O)O)C(=O)N[C@@H](Cc1cccc2ccccc12)C(N)=O)N(C)C(=O)[C@H](Cc1c[nH]c2ccccc12)NC(=O)CNC(=O)[C@H](Cc1ccc(O)cc1)NC(=O)[C@H](C)NC(=O)CC[C@@H](NC(=O)CN1CCN(CC(=O)O)CCN(CC(=O)O)CCN(CC(=O)O)CC1)C(=O)O [DOTA-γ-MGS5, DOTA-γ-glu^6-Ala^7-Tyr^8-Gly^9-Trp^10-(N-Me)Nle^11-Asp^12-1-Nal^13-NH2, reference compound] ({DOTA-d(γGlu)}-AYGW[NMeNle]D[1Nal]-NH2)
IC50 [1]: 4.9 ± 0.8 nM

CSCC[C@H](NC(=O)[C@H](Cc1c[nH]c2ccccc12)NC(=O)CNC(=O)[C@H](Cc1ccc(O)cc1)NC(=O)[C@H](C)NC(=O)[C@@H](CCC(=O)O)NC(=O)[C@@H](CCC(=O)O)NC(=O)[C@@H](CCC(=O)O)NC(=O)[C@@H](CCC(=O)O)NC(=O)[C@@H](CCC(=O)O)NC(=O)[C@@H](CCC(=O)O)NC(=O)CN1CCN(CC(=O)O)CCN(CC(=O)O)CCN(CC(=O)O)CC1)C(=O)N[C@@H](CC(=O)O)C(=O)N[C@@H](Cc1ccccc1)C(N)=O [CP04, DOTA-glu^1-glu^2-glu^3-glu^4-glu^5-glu^6-Ala^7-Tyr^8-Gly^9-Trp^10-Met^11-Asp^12-Phe^13-NH2, reference compound]
IC50 [1]: 11.2 ± 0.2 nM

CCCC[C@@H](C(=O)N[C@@H](CC(=O)O)C(=O)N[C@@H](Cc1cccc2ccccc12)C(N)=O)N(C)C(=O)[C@H](Cc1c[nH]c2ccccc12)NC(=O)CCOCCOCCOCCOCCNC(=O)CC[C@@H](NC(=O)CCC(C(=O)O)N1CCN(CC(=O)O)CCN(CC(=O)O)CC1)C(=O)O (stereo partly drawn) [NODAGA-CCK-66, NODAGA-γ-glu-(PEG)3-Trp-(N-Me)Nle-Asp-1-Nal-NH2] ({NODAGA-d(γGlu)-PEG4}-W[NMeNle]D[1Nal]-NH2)
IC50 [2]: 4.9 ± 0.7 nM

CCCC[C@@H](C(=O)N[C@@H](CC(=O)O)C(=O)N[C@@H](Cc1cccc2ccccc12)C(N)=O)N(C)C(=O)[C@H](Cc1c[nH]c2ccccc12)NC(=O)CCOCCOCCOCCOCCOCCNC(=O)CN1CCN(CC(=O)O)CCN(CC(=O)O)CCN(CC(=O)O)CC1 [DOTA-CCK-50, DOTA-(PEG)4-Trp-(N-Me)Nle-Asp-1-Nal-NH2] ({DOTA-PEG5}-W[NMeNle]D[1Nal]-NH2)
IC50 (text values without printed unit, ^natLu-labeled, read-out: IC50): 8.84 ± 1.25 nM

CCCC[C@H](NC(=O)[C@H](Cc1c[nH]c2ccccc12)NC(=O)CNC(=O)[C@H](Cc1ccc(O)cc1)NC(=O)[C@H](C)NC(=O)CC[C@@H](N)C(=O)O)C(=O)N[C@@H](CC(=O)O)C(=O)N[C@@H](CNC(=O)c1ccc([Si](F)(C(C)(C)C)C(C)(C)C)cc1)C(N)=O [CCK-48, H-γ-glu-Ala-Tyr-Gly-Trp-Nle-Asp-Dap(SiFA)-NH2] ({d(γGlu)}-AYGW[Nle]D[Dap](Benzoyl(4-SiFtBu2))-NH2)
IC50: > 10000 nM

CCCC[C@H](NC(=O)[C@@H](N)Cc1c[nH]c2ccccc12)C(=O)N[C@@H](CC(=O)O)C(=O)N[C@@H](Cc1cccc2ccccc12)C(N)=O [H-Trp-Nle-Asp-1-Nal-NH2] (H-W[Nle]D[1Nal]-NH2)
IC50 [1]: 297 ± 16 nM

CCCC[C@@H](C(=O)N[C@@H](CC(=O)O)C(=O)N[C@@H](Cc1cccc2ccccc12)C(N)=O)N(C)C(=O)[C@H](Cc1c[nH]c2ccccc12)NC(=O)CCOCCOCCOCCOCCNC(=O)CC[C@@H](NC(=O)CN1CCN(CC(=O)O)CCN(CC(=O)O)CC1)C(=O)O [NOTA-CCK-66, NOTA-γ-glu-(PEG)3-Trp-(N-Me)Nle-Asp-1-Nal-NH2] ({NOTA-d(γGlu)-PEG4}-W[NMeNle]D[1Nal]-NH2)
IC50 (AR4-2J cells, [^19F]AlF-complexated, read-out: IC50 [nM] (n = 3), ^natAlF-labeled): 10.4 ± 0.9 nM
IC50 [2]: 9.7 ± 1 nM

CCCC[C@@H](C(=O)N[C@@H](CC(=O)O)C(=O)N[C@@H](Cc1ccc2ccccc2c1)C(N)=O)N(C)C(=O)[C@@H](N)Cc1c[nH]c2ccccc12 [H-Trp-(N-Me)Nle-Asp-2-Nal-NH2] (H-W[NMeNle]D[2Nal]-NH2)
IC50 [1]: 102 ± 9 nM

CCCC[C@@H](C(=O)N[C@@H](CC(=O)O)C(=O)N[C@@H](Cc1cccc2ccccc12)C(N)=O)N(C)C(=O)[C@H](Cc1c[nH]c2ccccc12)NC(=O)CNC(=O)CNC(=O)[C@H](C)NC(=O)CNC(=O)CN1CCN(CC(=O)O)CCN(CC(=O)O)CCN(CC(=O)O)CC1 [DOTA-CCK-61, DOTA-Gly-Ala-(Gly)2-Trp-(N-Me)Nle-Asp-1-Nal-NH2] ({DOTA}-GAGGW[NMeNle]D[1Nal]-NH2)
IC50 [3]: 9.7 ± 1.7 nM

CCCC[C@H](NC(=O)[C@@H](N)Cc1c[nH]c2ccccc12)C(=O)N[C@@H](CC(=O)O)C(=O)N[C@@H](Cc1ccccc1)C(N)=O [H-Trp-Nle-Asp-Phe-NH2] (H-W[Nle]DF-NH2)
IC50 [1]: 466 ± 88 nM

CCCC[C@@H](C(=O)N[C@@H](CC(=O)O)C(=O)N[C@@H](Cc1cccc2ccccc12)C(N)=O)N(C)C(=O)[C@H](Cc1c[nH]c2ccccc12)NC(=O)CCOCCOCCOCCOCCNC(=O)CC[C@@H](NC(=O)CC[C@@H](C(=O)O)N1CCN(CC(=O)O)CCN(CC(=O)O)CCN(CC(=O)O)CC1)C(=O)O [(S)-DOTAGA-CCK-66, (S)-DOTAGA-γ-glu-(PEG)3-Trp-(N-Me)Nle-Asp-1-Nal-NH2] ({X5-d(γGlu)-PEG4}-W[NMeNle]D[1Nal]-NH2)
IC50 [2]: 17.9 ± 2.7 nM

CCCC[C@@H](C(=O)N[C@@H](CC(=O)O)C(=O)N[C@@H](Cc1c[nH]c2ccccc12)C(N)=O)N(C)C(=O)[C@@H](N)Cc1c[nH]c2ccccc12 [H-Trp-(N-Me)Nle-Asp-Trp-NH2] (H-W[NMeNle]DW-NH2)
IC50 [1]: 18.8 ± 0.5 nM

CCCC[C@@H](C(=O)N[C@@H](CC(=O)O)C(=O)N[C@@H](Cc1cccc2ccccc12)C(N)=O)N(C)C(=O)[C@H](Cc1c[nH]c2ccccc12)NC(=O)CNC(=O)CN1CCN(CC(=O)O)CCN(CC(=O)O)CCN(CC(=O)O)CC1 [DOTA-CCK-58, DOTA-Gly-Trp-(N-Me)Nle-Asp-1-Nal-NH2] ({DOTA}-GW[NMeNle]D[1Nal]-NH2)
IC50 [3]: 98.9 ± 8.4 nM

CCCC[C@H](NC(=O)[C@H](Cc1c[nH]c2ccccc12)NC(=O)CNC(=O)[C@H](Cc1ccc(O)cc1)NC(=O)[C@H](C)NC(=O)CC[C@@H](N)C(=O)O)C(=O)N[C@@H](CC(=O)O)C(=O)N[C@@H](Cc1ccc(-c2ccccc2)cc1)C(N)=O [CCK-38, H-γ-glu-Ala-Tyr-Gly-Trp-Nle-Asp-Bip-NH2] ({d(γGlu)}-AYGW[Nle]D[Bip]-NH2)
IC50 [1]: > 1000 nM

CCCC[C@@H](C(=O)N[C@@H](CC(=O)O)C(=O)N[C@@H](Cc1cccc2ccccc12)C(N)=O)N(C)C(=O)[C@H](Cc1c[nH]c2ccccc12)NC(=O)CCOCCOCCOCCOCCNC(=O)CC[C@@H](NC(=O)CC[C@H](C(=O)O)N1CCN(CC(=O)O)CCN(CC(=O)O)CCN(CC(=O)O)CC1)C(=O)O [(R)-DOTAGA-CCK-66, (R)-DOTAGA-γ-glu-(PEG)3-Trp-(N-Me)Nle-Asp-1-Nal-NH2] ({X2-d(γGlu)-PEG4}-W[NMeNle]D[1Nal]-NH2)
IC50 [2]: 16 ± 2.1 nM

CCCC[C@@H](C(=O)N[C@@H](CC(=O)O)C(=O)N[C@@H](Cc1cccc2ccccc12)C(N)=O)N(C)C(=O)[C@H](Cc1c[nH]c2ccccc12)NC(=O)CNC(=O)CNC(=O)CNC(=O)CNC(=O)CN1CCN(CC(=O)O)CCN(CC(=O)O)CCN(CC(=O)O)CC1 [DOTA-CCK-55, DOTA-(Gly)4-Trp-(N-Me)Nle-Asp-1-Nal-NH2] ({DOTA}-GGGGW[NMeNle]D[1Nal]-NH2)
IC50 [3]: 8.5 ± 1.2 nM
